A word on the IC50: it is the concentration needed to halve the response being measured.

Assay [1] has as its target T1, ABL1 (Homo sapiens, UniProt P00519).
T1 construct: the His-tagged ABL1 protein (full length, P3049) were from Life Technologies; purchased Life Technologies P3049
The assay can be described thus: TR-FRET binding assay, ABL1 (BODIPY-dasatinib probe). The note with it: concentration required to inhibit the probe binding to ABL by 50%, read-out: Binding affinity IC50 ABL. The protocol: The TR-FRET assay was carried out using 384-well white flat-bottom plates (Greiner Bio-One) and the signal was measured using an EnVision Multilabel Plate Reader (PerkinElmer, Waltham, MA, USA).
The half maximal inhibitory concentration (IC50) of test compounds was calculated by fitting the data with the logistic equation using GraphPad Prism 5 (GraphPad Software, Inc., La Jolla, CA, USA) or XLfit (IDBS, Guildford, UK).
Before addition to the assay plate, 3-fold concentrations of the His-ABL1 protein, Tb-SA and the biotinylated anti-His antibody were mixed in the assay buffer and incubated for over 1 h at room temperature. Several concentrations of test inhibitors dissolved in the assay buffer were dispensed in the assay plate. […] The plate was incubated for 30 min at room temperature and the TR-FRET signal was measured using the EnVision Multilabel Plate Reader.
A general note: Time-resolved FRET reads energy transfer from a long-lived donor to a nearby acceptor.

The subject of assay [2] is K562 cells. The assay can be described thus: WST cell growth inhibition, K562. It counts as cell-based, Human. The note with it: 48 h, WST assay; for IC50: Homo sapiens, means ± SD (n = 3). The protocol:
Human CML (K562 and KU812 cells), acute T-lymphoblast leukemia (MOLT-4 cell), and T cell leukemia (Jurkat cell) were cultured in Roswell Park Memorial Institute-1640 medium (Sigma-Aldrich, St. Louis, MO, USA) containing 10% fetal bovine serum (Thermo Fisher Scientific, Waltham, MA, USA) and 50 μg/ml kanamycin (Sigma-Aldrich). KU812 cells were obtained from Japanese Collection of Research Bioresources (JCRB, Osaka, Japan) Cell Bank (JCRB0104)[58].
Cell viability was determined using water-soluble tetrazolium WST-8 (4-[3-(2-methoxy-4-nitrophenyl)-2-(4-nitrophenyl)-2H-5-tetrazolio]-1,3-benzene disulfonate) for the spectrophotometric assay and conducted according to the manufacturer’s instructions (Dojindo, Tokyo, Japan). Cells were seeded at a concentration of 5 × 10^3 cells per well in a 96-well culture plate, and treated with the indicated compounds for 48 h. The WST-8 reagent was added, and the cells were incubated for 0.5 h at 37 °C in a humidified atmosphere of 5% CO2. The absorbance at 450 nm of the medium was measured using the EnVision Multilabel Plate Reader.

The test system of assay [3] is Jurkat cells. The assay can be described thus: WST cell growth inhibition, Jurkat (BCR-ABL negative). It counts as cell-based. The settings on record: Homo sapiens, 48 h, WST assay, means ± SD (n = 3).
For assay [4], the target named is T2, BCR-ABL protein (Homo sapiens, UniProt P00519+P11274).
T2 construct: examined for their activity to degrade BCR-ABL in K562 cells for 6 h; BCR (fusion partner, P11274, N-terminal part); endogenous in cells; host or cells: K562
T2 sequence (P11274+P00519 fused): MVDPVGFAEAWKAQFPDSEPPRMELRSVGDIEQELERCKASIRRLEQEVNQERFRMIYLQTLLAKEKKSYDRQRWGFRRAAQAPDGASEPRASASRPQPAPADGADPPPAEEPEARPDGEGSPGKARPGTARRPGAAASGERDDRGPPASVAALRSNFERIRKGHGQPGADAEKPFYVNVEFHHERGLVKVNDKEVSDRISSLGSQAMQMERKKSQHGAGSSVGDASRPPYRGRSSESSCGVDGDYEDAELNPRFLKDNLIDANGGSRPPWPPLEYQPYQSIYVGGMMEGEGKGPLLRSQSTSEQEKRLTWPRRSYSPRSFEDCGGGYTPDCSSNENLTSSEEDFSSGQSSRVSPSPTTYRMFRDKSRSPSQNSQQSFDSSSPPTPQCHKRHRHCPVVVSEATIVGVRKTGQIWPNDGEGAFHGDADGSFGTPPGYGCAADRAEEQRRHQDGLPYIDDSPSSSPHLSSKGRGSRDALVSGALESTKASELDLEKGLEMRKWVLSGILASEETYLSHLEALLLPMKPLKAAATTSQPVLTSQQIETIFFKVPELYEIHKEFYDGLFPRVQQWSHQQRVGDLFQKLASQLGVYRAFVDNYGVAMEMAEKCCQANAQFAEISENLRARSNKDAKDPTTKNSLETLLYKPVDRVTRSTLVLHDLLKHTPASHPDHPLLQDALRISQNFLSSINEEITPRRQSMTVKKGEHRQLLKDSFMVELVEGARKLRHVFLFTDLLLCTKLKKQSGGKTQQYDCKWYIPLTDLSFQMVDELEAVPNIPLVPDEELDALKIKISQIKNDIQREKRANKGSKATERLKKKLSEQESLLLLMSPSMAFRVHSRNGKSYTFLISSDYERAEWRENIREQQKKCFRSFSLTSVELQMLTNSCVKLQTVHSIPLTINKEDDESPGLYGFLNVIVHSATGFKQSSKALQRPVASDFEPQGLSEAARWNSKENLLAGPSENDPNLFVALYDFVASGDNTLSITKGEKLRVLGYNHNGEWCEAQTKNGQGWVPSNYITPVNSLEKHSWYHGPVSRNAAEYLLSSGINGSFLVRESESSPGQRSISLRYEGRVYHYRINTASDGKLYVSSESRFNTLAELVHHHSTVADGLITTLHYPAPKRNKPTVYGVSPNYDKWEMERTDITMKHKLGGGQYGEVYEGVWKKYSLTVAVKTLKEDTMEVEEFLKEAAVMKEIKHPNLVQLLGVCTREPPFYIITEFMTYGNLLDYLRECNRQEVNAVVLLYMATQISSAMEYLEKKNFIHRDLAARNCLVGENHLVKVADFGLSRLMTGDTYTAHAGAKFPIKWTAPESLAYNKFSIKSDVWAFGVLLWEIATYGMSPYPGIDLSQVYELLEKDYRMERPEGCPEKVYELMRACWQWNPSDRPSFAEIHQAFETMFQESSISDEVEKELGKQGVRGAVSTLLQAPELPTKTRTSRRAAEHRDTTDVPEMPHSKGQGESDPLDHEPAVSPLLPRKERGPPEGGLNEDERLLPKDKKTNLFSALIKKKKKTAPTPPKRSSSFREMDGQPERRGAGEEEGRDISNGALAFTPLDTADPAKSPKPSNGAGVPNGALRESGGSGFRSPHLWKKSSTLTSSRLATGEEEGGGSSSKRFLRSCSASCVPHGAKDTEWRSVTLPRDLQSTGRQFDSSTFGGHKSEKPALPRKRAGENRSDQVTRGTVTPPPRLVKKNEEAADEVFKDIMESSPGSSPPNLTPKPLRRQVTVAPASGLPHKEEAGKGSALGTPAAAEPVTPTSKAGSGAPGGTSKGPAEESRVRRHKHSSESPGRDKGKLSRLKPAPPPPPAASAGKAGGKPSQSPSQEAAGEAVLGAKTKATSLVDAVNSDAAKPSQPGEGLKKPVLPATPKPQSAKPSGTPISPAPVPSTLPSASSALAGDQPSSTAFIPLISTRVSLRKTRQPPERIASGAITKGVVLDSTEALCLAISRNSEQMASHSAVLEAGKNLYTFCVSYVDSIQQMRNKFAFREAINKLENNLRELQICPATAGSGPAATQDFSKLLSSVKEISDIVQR
The assay can be described thus: Protein knockdown by western blot in K562 cells. It is filed as cell-based. The note with it: 6 h. As to the method:
(§1) Cells were collected and lysed in a lysis buffer (0.5% Triton X-100, 0.01 M Tris-HCl (pH 7.5), 0.15 M NaCl, Complete Mini protease inhibitor cocktail (Roche Applied Science, Indianapolis, IL, USA) and PhosStop phosphatase inhibitor cocktail (Roche Applied Science)). Protein concentrations were measured by the BCA method (Thermo Fisher Scientific) and an equal amount of protein lysate was separated by SDS-PAGE, transferred to polyvinylidene difluoride membranes (Merck Millipore) and analyzed by western blot using an appropriate antibody. The immunoreactive proteins were visualized using Clarity Western ECL substrate (Bio-Rad, Hercules, CA, USA) and their light emission was quantified with a LAS-3000 lumino-image analyzer (Fuji, Tokyo, Japan).

Assay [5] relates to phosphorylation of BCR-ABL, STAT5 and CrkL. The assay can be described thus: Downstream kinase signaling (phosphorylation) by western blot in K562 cells. It counts as cell-based, Human. As to the method: as §1, with “Japan). The following antibodies were used: anti-cAbl rabbit polyclonal antibody (pAb) (#2862), anti-XIAP rabbit pAb (#2042), anti-phospho-cAbl rabbit pAb (#3009), anti-STAT5 rabbit pAb (#9363), anti-phospho-STAT5 rabbit pAb (#9359), anti-CrkL mouse monoclonal antibody (mAb) (#3182) and anti-phospho-CrkL rabbit pAb (#3181), anti-PARP rabbit pAb (#9532), and anti-cleaved Caspase 3 rabbit pAb (#9664) (Cell Signaling Technology, Danvers, MA, USA); anti-β-tubulin (ab6046) rabbit pAb (Abcam, Cambridge, UK) and anti-GAPDH rabbit pAb (sc-25778 HRP) (Santa Cruz, Dallas, TX, USA); anti-cIAP1 goat pAb (AF8181) (R&D systems).” for “Japan).”
(§2) Cells were seeded at a concentration of 2 × 10^6 cells per 10-cm tissue culture dish and treated with the indicated compounds for the indicated times. Then, the cells were washed three times to remove the compounds, and incubated in drug-free medium for the indicated times.
Background: Immunoblotting shows a protein as a band on a membrane.

The test system of assay [6] is K562 cells. The assay can be described thus: Washout experiment, cell counting of K562 cells. The settings on record: washed; for growth of K562 cells after drug removal: 25 or 50 times IC50 for 12 h, drug-free medium for 6 d. It counts as cell-based, Human. As to the method: as §2
The test system of assay [7] is caspase 3 activation and PARP cleavage. The assay can be described thus: Caspase activation and PARP cleavage after drug removal in K562 cells. It counts as cell-based, Human. The settings on record: K562, 50 times IC50 for 12 h, drug removal for 24 h. As to the method: as §1, with “Japan). The following antibodies were used: anti-cAbl rabbit polyclonal antibody (pAb) (#2862), anti-XIAP rabbit pAb (#2042), anti-phospho-cAbl rabbit pAb (#3009), anti-STAT5 rabbit pAb (#9363), anti-phospho-STAT5 rabbit pAb (#9359), anti-CrkL mouse monoclonal antibody (mAb) (#3182) and anti-phospho-CrkL rabbit pAb (#3181), anti-PARP rabbit pAb (#9532), and anti-cleaved Caspase 3 rabbit pAb (#9664) (Cell Signaling Technology, Danvers, MA, USA); anti-β-tubulin (ab6046) rabbit pAb (Abcam, Cambridge, UK) and anti-GAPDH rabbit pAb (sc-25778 HRP) (Santa Cruz, Dallas, TX, USA); anti-cIAP1 goat pAb (AF8181) (R&D systems).” for “Japan).”
as §2

The mark [8] stands for this setting: K562, 50 times IC50 for 12 h (time 0).

T1 sequence (P00519 whole entry): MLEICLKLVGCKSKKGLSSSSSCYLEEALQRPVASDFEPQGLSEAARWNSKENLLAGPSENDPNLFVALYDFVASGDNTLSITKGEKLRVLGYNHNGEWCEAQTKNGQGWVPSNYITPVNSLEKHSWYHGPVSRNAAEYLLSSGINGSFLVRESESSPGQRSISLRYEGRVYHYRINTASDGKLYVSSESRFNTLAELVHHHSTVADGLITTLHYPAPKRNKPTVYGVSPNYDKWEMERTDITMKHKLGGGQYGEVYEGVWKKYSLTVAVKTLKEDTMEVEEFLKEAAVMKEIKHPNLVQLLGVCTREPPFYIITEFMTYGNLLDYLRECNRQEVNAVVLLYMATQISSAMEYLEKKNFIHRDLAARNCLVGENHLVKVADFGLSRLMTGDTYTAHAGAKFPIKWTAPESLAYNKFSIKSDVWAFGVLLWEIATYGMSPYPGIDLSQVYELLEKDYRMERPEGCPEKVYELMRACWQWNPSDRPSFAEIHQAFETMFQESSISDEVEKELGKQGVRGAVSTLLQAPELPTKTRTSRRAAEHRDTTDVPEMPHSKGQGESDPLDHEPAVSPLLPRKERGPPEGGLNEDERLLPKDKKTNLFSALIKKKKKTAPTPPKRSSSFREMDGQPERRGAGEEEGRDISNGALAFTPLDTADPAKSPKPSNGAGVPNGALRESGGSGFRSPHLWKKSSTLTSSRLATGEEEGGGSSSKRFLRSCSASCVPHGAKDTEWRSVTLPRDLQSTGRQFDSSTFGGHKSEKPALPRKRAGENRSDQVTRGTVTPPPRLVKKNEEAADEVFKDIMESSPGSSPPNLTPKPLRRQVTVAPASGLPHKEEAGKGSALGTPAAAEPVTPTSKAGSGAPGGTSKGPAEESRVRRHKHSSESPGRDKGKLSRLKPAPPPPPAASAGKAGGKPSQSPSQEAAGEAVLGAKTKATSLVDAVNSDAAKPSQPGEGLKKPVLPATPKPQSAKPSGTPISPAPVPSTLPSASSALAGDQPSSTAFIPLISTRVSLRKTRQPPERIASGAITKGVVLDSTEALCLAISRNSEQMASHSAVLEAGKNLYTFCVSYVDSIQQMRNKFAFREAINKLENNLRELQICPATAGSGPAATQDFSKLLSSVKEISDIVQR

Regarding `CN[C@@H](C)C(=O)N[C@H](C(=O)N1CCC[C@H]1c1nc(C(=O)c2cccc(OCCOCCOCCOCC(=O)N3CCN(c4cc(Nc5ncc(C(=O)Nc6c(C)cccc6Cl)s5)nc(C)n4)CC3)c2)cs1)C1CCCCC1` [DAS-IAP], the results for the IC50 in assay [1], in assay [2] and in assay [3] were 0.54 nM, 8.6 nM and 2870 ± 293 nM, respectively. Moreover, in assay [2], the “suppression of K562 cell growth (comparison)” value was “more potent suppression of K562 cell growth than DAS-VHL”. Moreover, in assay [4], the “BCR-ABL, cIAP1 and XIAP protein levels” value was “reduced”. Besides, in assay [4] (1-300 nM), the “knockdown activity against the BCR-ABL protein” value was “effective knockdown activity”. Besides, the “phosphorylation of BCR-ABL, STAT5 and CrkL” value in assay [5] (setting [8]) is reported as “inhibited”; in assay [5] (K562 cells, 6 h), “suppressed”. For the same compound, the “phosphorylated BCR-ABL, STAT5 and CrkL after drug removal” value in assay [5] (K562, 50 times IC50 for 12 h, 48 and 72 h after drug removal) is given as “remained significantly diminished”. The “growth of K562 cells after drug removal” value in assay [6] is “markedly inhibited the growth”. Also, in assay [6] (50 times IC50 for 12 h, drug-free medium), the “K562 cell number after drug removal” value was “decreased continuously”. The “caspase 3 activation and PARP cleavage” value in assay [7] is on record as “induced”.

With `CN[C@@H](C)C(=O)N(C)[C@H](C(=O)N1CCC[C@H]1c1nc(C(=O)c2cccc(OCCOCCOCCOCC(=O)N3CCN(c4cc(Nc5ncc(C(=O)Nc6c(C)cccc6Cl)s5)nc(C)n4)CC3)c2)cs1)C1CCCCC1` [DAS-meIAP], the values for the IC50 in assay [1], in assay [2] and in assay [3] were under 0.24 nM, 3.93 nM and 2440 ± 310 nM, respectively. The “BCR-ABL, cIAP1 and XIAP protein levels” value in assay [4] is reported as “did not reduce”. In addition, the “phosphorylation of BCR-ABL, STAT5 and CrkL” value in assay [5] (setting [8]) is on record as “inhibited”; in assay [5] (K562 cells, 6 h), “suppressed”. The “growth of K562 cells after drug removal” value in assay [6] is on record as “slightly delayed the growth”. In addition, the “caspase 3 activation and PARP cleavage” value in assay [7] is on record as “not”.

These data come from PMC6131351, “Pharmacological difference between degrader and inhibitor against oncogenic BCR-ABL kinase” (Scientific Reports, 2018).
